Measured values as given in US20230146939A1, “TREATMENT FOR HUMAN CORONAVIRUS INFECTION” (THE ADMINISTRATORS OF THE TULANE EDUCATIONAL FUND, priority 2020, published 2023).

Legend:
SARS-CoV-2 = details: 1 h
lung tissue = details: saline/ATN-161, no SARS-CoV-2
[1] = in vivo; cited from earlier work
[2] = cancer patients; cited from earlier work

Substance | IC50 (SARS-CoV-2) | H&E histopathological changes in uninfected mice (lung tissue) | Masson's trichrome histopathological changes in uninfected mice (lung tissue) | tissue distribution [1] | safety in human clinical trials [2]
Ac-PHSCN-NH2 [ATN-161, Ac-PHSCN-NH2] [listing 1 of 2 here] | 3.16 µM | – | – | – | –
Ac-PHSCN-NH2 [ATN-161, Ac-PHSCN-NH2] [listing 2 of 2 here] | – | no histopathological changes in any of the mice | no histopathological changes in any of the mice | high tissue distribution | no dose limiting toxicity
